Reference: article PMC3608752 (Annals of neurology, 2013)
pIC50: −log10 of the molar value.

Target: T1, PH20 hyaluronidase (bovine testicular hyaluronidase, BTH/PH20) (Bos taurus, UniProt Q2YDK3)
T1 sequence (Q2YDK3 36-553): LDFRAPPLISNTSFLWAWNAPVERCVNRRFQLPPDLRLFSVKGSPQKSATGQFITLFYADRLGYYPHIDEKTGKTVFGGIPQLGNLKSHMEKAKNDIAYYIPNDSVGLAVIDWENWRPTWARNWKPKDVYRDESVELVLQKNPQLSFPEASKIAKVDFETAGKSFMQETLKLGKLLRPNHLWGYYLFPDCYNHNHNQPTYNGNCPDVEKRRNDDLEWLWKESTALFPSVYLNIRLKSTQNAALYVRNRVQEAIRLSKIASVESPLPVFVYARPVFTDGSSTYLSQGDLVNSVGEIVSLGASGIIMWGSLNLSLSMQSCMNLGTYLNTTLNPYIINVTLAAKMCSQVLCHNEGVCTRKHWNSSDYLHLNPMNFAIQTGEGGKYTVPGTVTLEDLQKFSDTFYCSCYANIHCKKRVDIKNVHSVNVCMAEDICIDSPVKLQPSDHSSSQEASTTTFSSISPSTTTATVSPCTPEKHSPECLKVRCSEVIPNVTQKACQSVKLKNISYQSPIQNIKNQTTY
Format: biochemical

For `CCCCCCCCCCCCCCCC(=O)OC[C@H](O)[C@H]1OC(=O)C(O)=C1O` [VCPAL, 6-O-Palmitoyl-L-ascorbic acid], the pIC50 was ~4.48.
